According to US20260317324A1, “BIFUNCTIONAL COMPOUNDS FOR DEGRADING BRAF VIA UBIQUITIN PROTEOSOME PATHWAY” (Nurix Therapeutics, Inc., priority 2023, published 2026):

Assays:
Type in all cases: cell-based
[1] = biological target: T1, BRAF D594G (Homo sapiens, UniProt P15056, D594G); experiment: BRAF HiBiT degradation assay, C-terminal HiBiT-tagged BRAF D594G overexpressed in HCT-116 BRAF−/− cells (clone 63), Nano-Glo HiBiT Lytic assay
T1 construct: Horizon Discovery (HCT-116 BRAF−/− cells); host or cells: HCT-116 BRAF−/− cells, clone 63, lentiviral transduction
In short: (§1)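 Degradation assay in HCT-116 BRAF−/− cells carrying lentiviral HiBiT-tagged mutant BRAF. The readout is % protein remaining across 1 μM to 0.01 nM compound, and DC50 marks 50% remaining.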

[2] = biological target: T2, BRAF V600E (Homo sapiens, UniProt P15056, V600E); experiment: BRAF HiBiT degradation assay, C-terminal HiBiT-tagged BRAF V600E A375 cells (clone 1F10), Nano-Glo HiBiT Lytic assay; settings: for Dmax: A-375
T2 construct: endogenous C-terminal HiBiT fusion tag on BRAF V600E allele; endogenous in cells; host or cells: A375 clone 1F10 (CRISPR-Cas9 knock-in of the HiBiT tag; parental A375 from ATCC)
In short: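 Using CRISPR-engineered A375 cells that carry a C-terminal HiBiT tag on endogenous BRAF V600E, remaining protein was quantified by lytic luminescence relative to DMSO-treated cells, with wildtype A375 as the background control. DC50 denotes the concentration giving 50% degradation.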

[3] = biological target: T3, BRAF G469A (Homo sapiens, UniProt P15056, G469A); experiment: BRAF HiBiT degradation assay, C-terminal HiBiT-tagged BRAF G469A overexpressed in HCT-116 BRAF−/− cells (clone 34), Nano-Glo HiBiT Lytic assay
T3 construct: Horizon Discovery (HCT-116 BRAF−/− cells); host or cells: HCT-116 BRAF−/− cells, clone 34, lentiviral transduction
In short: as §1

[4] = biological target: T4, BRAF G466V (Homo sapiens, UniProt P15056, G466V); experiment: BRAF HiBiT degradation assay, C-terminal HiBiT-tagged BRAF G466V overexpressed in HCT-116 BRAF−/− cells (clone 8), Nano-Glo HiBiT Lytic assay
T4 construct: Horizon Discovery (HCT-116 BRAF−/− cells); host or cells: HCT-116 BRAF−/− cells, clone 8, lentiviral transduction
In short: as §1

[5] = BRAF D594G (Class 3), HCT-116 BRAF−/− cells, DC50 at 50% degradation
[6] = BRAF D594G (Class 3), HCT-116 BRAF−/− cells, observed Dmax relative to DMSO control
[7] = A375 (BRAF V600E, Class 1), DC50 at 50% degradation
[8] = A375 (BRAF V600E, Class 1), observed Dmax, % protein degraded relative to DMSO control
[9] = BRAF G469A (Class 2), HCT-116 BRAF−/− cells, DC50 at 50% degradation
[10] = BRAF G469A (Class 2), HCT-116 BRAF−/− cells, observed Dmax relative to DMSO control
[11] = BRAF G466V (Class 3), HCT-116 BRAF−/− cells, DC50 at 50% degradation
[12] = BRAF G466V (Class 3), HCT-116 BRAF−/− cells, observed Dmax relative to DMSO control
[13] = BRAF D594G, DC50 at 50%: fitted conc. at Y=50
[14] = HCT-116, BRAF D594G, percentage protein degraded at maximal compound effect relative to DMSO
[15] = A375 (BRAF V600E), DC50 at 50%: fitted conc. at Y=50
[16] = A375 (BRAF V600E), percentage protein degraded at maximal compound effect relative to DMSO
[17] = Class 2, BRAF G469A, DC50 at 50%: fitted conc. at Y=50
[18] = HCT-116, Class 2, BRAF G469A, percentage protein degraded at maximal compound effect relative to DMSO
[19] = BRAF G466V, DC50 at 50%: fitted conc. at Y=50
[20] = HCT-116, BRAF G466V, percentage protein degraded at maximal compound effect relative to DMSO

T4 sequence (P15056 whole entry G466V): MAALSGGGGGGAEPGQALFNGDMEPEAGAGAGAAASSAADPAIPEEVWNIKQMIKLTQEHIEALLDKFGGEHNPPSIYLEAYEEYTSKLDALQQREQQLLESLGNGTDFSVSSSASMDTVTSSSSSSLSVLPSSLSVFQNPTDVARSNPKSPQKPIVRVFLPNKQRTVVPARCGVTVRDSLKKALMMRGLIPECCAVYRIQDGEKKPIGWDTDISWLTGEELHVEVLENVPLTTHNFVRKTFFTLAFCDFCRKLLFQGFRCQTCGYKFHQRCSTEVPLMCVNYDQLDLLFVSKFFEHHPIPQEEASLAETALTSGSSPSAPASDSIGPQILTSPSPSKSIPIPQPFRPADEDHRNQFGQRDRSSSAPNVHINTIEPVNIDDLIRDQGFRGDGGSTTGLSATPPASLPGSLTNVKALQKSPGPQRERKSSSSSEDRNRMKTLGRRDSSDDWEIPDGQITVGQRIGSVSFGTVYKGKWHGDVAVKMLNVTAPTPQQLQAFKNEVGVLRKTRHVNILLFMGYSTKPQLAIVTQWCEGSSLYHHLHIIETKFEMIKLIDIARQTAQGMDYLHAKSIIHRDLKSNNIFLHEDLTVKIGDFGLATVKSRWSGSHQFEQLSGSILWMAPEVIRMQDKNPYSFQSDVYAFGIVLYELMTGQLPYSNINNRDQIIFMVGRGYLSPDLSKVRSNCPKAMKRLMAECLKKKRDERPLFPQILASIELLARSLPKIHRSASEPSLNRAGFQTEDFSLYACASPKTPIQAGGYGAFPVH
T1 sequence (P15056 whole entry D594G): as the sequence (P15056 whole entry G466V) above, with V466G, D594G counted along it
T3 sequence (P15056 whole entry G469A): as the sequence (P15056 whole entry G466V) above, with V466G, G469A counted along it
T2 sequence (P15056 whole entry V600E, the tested form may be a part): as the sequence (P15056 whole entry G466V) above, with V466G, V600E counted along it

SMILES	DC50 [1, 5] [nM]	Dmax [1, 6] [%]	DC50 [2, 7] [nM]	Dmax [2, 8] [%]	DC50 [3, 9] [nM]	Dmax [3, 10] [%]	DC50 [4, 11] [nM]	Dmax [4, 12] [%]	DC50 [1, 13] [nM]	Dmax [1, 14] [%]	DC50 [2, 15] [nM]	Dmax [2, 16] [%]	DC50 [3, 17] [nM]	Dmax [3, 18] [%]	DC50 [4, 19] [nM]	Dmax [4, 20] [%]
O=C1CC[C@H](c2ccc(N3CCC(CN4CCN(c5ccc(-n6cc(-c7cc(Cl)cc(NS(=O)(=O)N8CC(F)C8)c7F)c(-c7ccncc7)n6)cc5)CC4)CC3)cc2)C(=O)N1 [Compound 333, N-{5-chloro-3-[1-(4-{4-[(1-{4-[(3R)-2,6-dioxopiperidin-3-yl]phenyl}piperidin-4-yl)methyl]piperazin-1-yl}phenyl)-3-(pyridin-4-yl)-1H-pyrazol-4-yl]-2-fluorophenyl}-3-fluoroazetidine-1-sulfonamide]	< 10	30 to 70	< 10	> 70	< 10	30 to 70	< 10	> 70								
C[C@@H]1CN(c2ccc(-n3cc(-c4cc(Cl)cc(NS(=O)(=O)N5CCCC5)c4F)c(-c4ccncc4)n3)nc2)CCN1CC1CCN(c2ccc([C@H]3CCC(=O)NC3=O)cc2)CC1 [Compound 326, N-[5-chloro-3-(1-{5-[(3R)-4-[(1-{4-[(3R)-2,6-dioxopiperidin-3-yl]phenyl}piperidin-4-yl)methyl]-3-methylpiperazin-1-yl]pyridin-2-yl}-3-(pyridin-4-yl)-1H-pyrazol-4-yl)-2-fluorophenyl]pyrrolidine-1-sulfonamide]	< 10	> 70	< 10	> 70	10 to 50	30 to 70	< 10	> 70								
CCCS(=O)(=O)Nc1cccc(-c2nc(C3CCN(C(=O)C4(C)CCN(C(=O)C5CCN(c6ccc(C7CCC(=O)NC7=O)cn6)CC5)CC4)CC3)sc2-c2ccncn2)c1F (racemic) [Compound 181, Rac-N-[3-(2-{1-[1-(1-{5-[(3R)-2,6-dioxopiperidin-3-yl]pyridin-2-yl}piperidine-4-carbonyl)-4-methylpiperidine-4-carbonyl]piperidin-4-yl}-5-(pyrimidin-4-yl)-1,3-thiazol-4-yl)-2-fluorophenyl]propane-1-sulfonamide]									< 10	> 70	< 10	> 70	> 500	30 to 70	< 10	> 70
CCCS(=O)(=O)Nc1cccc(-c2nc(C(C)(C)C)sc2-c2ccnc(Nc3ccc(N4CCN(C(=O)C5CCN(c6ccc(C7CCC(=O)NC7=O)cc6)CC5)CC4)c(F)c3)n2)c1F (racemic) [Compound 65, Rac-N-(3-{2-tert-butyl-5-[2-({4-[4-(1-{4-[(3R)-2,6-dioxopiperidin-3-yl]phenyl}piperidine-4-carbonyl)piperazin-1-yl]-3-fluorophenyl}amino)pyrimidin-4-yl]-1,3-thiazol-4-yl}-2-fluorophenyl)propane-1-sulfonamide]									> 500	30 to 70	< 10	> 70	> 500	30 to 70	> 500	30 to 70
CCCS(=O)(=O)Nc1cccc(-c2nc(C3CCC4(CC3)CCN(C(=O)C3CCN(c5ccc(C6CCC(=O)NC6=O)cn5)CC3)CC4)sc2-c2ccnc(N)n2)c1F (racemic) [Compound 246, Rac-N-{3-[5-(2-aminopyrimidin-4-yl)-2-[3-(1-{5-[(3R)-2,6-dioxopiperidin-3-yl]pyridin-2-yl}piperidine-4-carbonyl)-3-azaspiro[5.5]undecan-9-yl]-1,3-thiazol-4-yl]-2-fluorophenyl}propane-1-sulfonamide]	> 500	30 to 70	10 to 50	> 70	> 500	< 30	> 500	< 30								
O=C1CCC(c2ccc(N3CCC(CN4CCN(c5ccc(-n6cc(-c7cc(Cl)cc(NS(=O)(=O)N8CCCC8)c7F)c(-c7ccncc7)n6)cn5)CC4)CC3)nc2)C(=O)N1 (racemic) [Compound 352, Rac-N-{5-chloro-3-[1-(6-{4-[(1-{5-[(3R)-2,6-dioxopiperidin-3-yl]pyridin-2-yl}piperidin-4-yl)methyl]piperazin-1-yl}pyridin-3-yl)-3-(pyridin-4-yl)-1H-pyrazol-4-yl]-2-fluorophenyl}pyrrolidine-1-sulfonamide]	< 10	30 to 70	< 10	> 70	< 10	> 70	< 10	> 70								
CCCS(=O)(=O)Nc1cc(Cl)cc(-c2cn(-c3ccc(N4CCN(CC5CCN(c6ccc([C@H]7CCC(=O)NC7=O)cc6)CC5)[C@H](C)C4)cc3)nc2-c2ccncc2)c1F [Compound 275, N-[5-chloro-3-(1-{4-[(3R)-4-[(1-{4-[(3R)-2,6-dioxopiperidin-3-yl]phenyl}piperidin-4-yl)methyl]-3-methylpiperazin-1-yl]phenyl}-3-(pyridin-4-yl)-1H-pyrazol-4-yl)-2-fluorophenyl]propane-1-sulfonamide]	< 10	30 to 70	< 10	> 70	10 to 50	30 to 70	< 10	> 70								

Now from value to compound:

DC50 [1, 5] [nM]	Dmax [1, 6] [%]	DC50 [2, 7] [nM]	Dmax [2, 8] [%]	DC50 [3, 9] [nM]	Dmax [3, 10] [%]	DC50 [4, 11] [nM]	Dmax [4, 12] [%]	DC50 [1, 13] [nM]	Dmax [1, 14] [%]	DC50 [2, 15] [nM]	Dmax [2, 16] [%]	DC50 [3, 17] [nM]	Dmax [3, 18] [%]	DC50 [4, 19] [nM]	Dmax [4, 20] [%]	SMILES
								> 500	< 30	> 500	30 to 70	> 500	< 30	> 500	< 30	CCCS(=O)(=O)Nc1cccc(-c2nc(C(C)(C)C)sc2-c2ccnc(Nc3cccc(OC4CCN(C(=O)C[C@@H]5CCN(c6ccc(C7CCC(=O)NC7=O)cc6)C5)CC4)c3)n2)c1F (mixture of isomers) [Compound 92, N-(3-{2-tert-butyl-5-[2-({3-[(1-{2-[(3S)-1-{4-[(3RS)-2,6-dioxopiperidin-3-yl]phenyl}pyrrolidin-3-yl]acetyl}piperidin-4-yl)oxy]phenyl}amino)pyrimidin-4-yl]-1,3-thiazol-4-yl}-2-fluorophenyl)propane-1-sulfonamide]
								> 500	< 30	10 to 50	> 70	> 500	< 30	> 500	30 to 70	CCCS(=O)(=O)Nc1cccc(-c2nc(C(C)(C)C)sc2-c2ccnc(Nc3cnn(CC4CCN(C(=O)CN5CCC(c6ccc(NC7CCC(=O)NC7=O)cc6)CC5)CC4)c3)n2)c1F (racemic) [Compound 116, Rac-N-(3-{2-tert-butyl-5-[2-({1-[(1-{2-[4-(4-{[(3R)-2,6-dioxopiperidin-3-yl]amino}phenyl)piperidin-1-yl]acetyl}piperidin-4-yl)methyl]-1H-pyrazol-4-yl}amino)pyrimidin-4-yl]-1,3-thiazol-4-yl}-2-fluorophenyl)propane-1-sulfonamide]
								> 500	30 to 70	10 to 50	30 to 70	> 500	< 30	> 500	< 30	CCCS(=O)(=O)Nc1cccc(-c2nc(C(C)(C)C)sc2-c2ccnc(Nc3cnn(C4CCN(CC[C@H]5CCN(c6ccc(C7CCC(=O)NC7=O)cn6)C5)CC4)c3)n2)c1F (mixture of isomers) [Compound 77, N-{3-[2-tert-butyl-5-(2-{[1-(1-{2-[(3S)-1-{5-[(3RS)-2,6-dioxopiperidin-3-yl]pyridin-2-yl}pyrrolidin-3-yl]ethyl}piperidin-4-yl)-1H-pyrazol-4-yl]amino}pyrimidin-4-yl)-1,3-thiazol-4-yl]-2-fluorophenyl}propane-1-sulfonamide]
